This is an account of results in US9333214B2 (priority 2007, dated 2016).

As a reminder, the MIC is the smallest concentration in the dilution series that meets the test's criterion for growth inhibition.

One data set deals with P. aeruginosa. As to the kind of experiment: Amikacin susceptibility testing (MIC) of P. aeruginosa sputum isolates. Format: cell-based. As to conditions: for MIC: Pseudomonas aeruginosa. As to the method:
Quantitative culture of sputum samples and subsequent amikacin susceptibility testing of each morphologically distinct P. aeruginosa were performed. The MIC of amikacin for the isolates with the highest MIC cultured from each subject at screening and Day 14 was documented. The density (CFU per gram of sputum) of P. aeruginosa in sputum was calculated as the log10 value for the sum of all morphotypes.

The conditions of data set [1]: rat, in vivo.
Data set [2] in a line: Preclinical pharmacokinetics after inhalation in rats. Particulars: equal dose by inhalation.
Data set [3] deals with P. aeruginosa strain (mucoid strain 3064). Kind of data set: Rat model of chronic pulmonary infection with Pseudomonas (agar beads). Format: in vivo, rats.

Regarding `NCC[C@H](O)C(=O)N[C@@H]1C[C@H](N)[C@@H](O[C@H]2O[C@H](CN)[C@@H](O)[C@H](O)[C@H]2O)[C@H](O)[C@H]1O[C@H]1O[C@H](CO)[C@@H](O)[C@H](N)[C@H]1O` [amikacin], the MIC in the data set with P. aeruginosa (0 h, Study 1, baseline (Day 0)) was 8 µg/mL; in the data set on P. aeruginosa (336 h, Study 1, Day 14), 30.8 µg/mL; in the data set on P. aeruginosa (Study 2, baseline) it was 41 µg/mL. Moreover, the “mean MIC of amikacin for P. aeruginosa isolates” value in the data set on P. aeruginosa (Study 1, baseline (Day 0)) worked out at 8.04 µg/mL.

Take `NC[C@H]1O[C@H](O[C@H]2[C@H](O)[C@@H](O[C@H]3O[C@H](CO)[C@@H](O)[C@H](N)[C@H]3O)[C@H](N)C[C@@H]2N)[C@H](N)C[C@@H]1O` [tobramycin]: the “time to undetectable lung levels after cessation of administration” value in data set [1] is no more than 6 h. Also, in data set [2], the “AUC of drug in the kidneys vs Liposomal Amikacin aerosol” value is “significantly higher”. The bacteria in lungs result in data set [3] (60 mg/kg (given twice per day) daily for 28 days) is listed as “below the limit of detection”. Moreover, the “bacterial density (log10CFU/lung) vs saline control” value in data set [3] (BID for 14 days, 30 mg/kg per dose) is on record as “significant reduction”.
